Measured values from patent publication US20250339531A1, “DUX4 POLYPEPTIDES AND NUCLEIC ACIDS FOR TREATING INFLAMMATORY AND AUTOIMMUNE CONDITIONS” (Fred Hutchinson Cancer Center, priority 2021, published 2025).
Entries after “also recorded” stand apart in the source; their conditions may differ.

Experiments:
H3.X/Y = experiment: Immunoblot of DUX4 target H3.X/Y proteins; assay type: cell-based, human; conditions: MB135 cells, continuous or pulsed protocol
Procedure: (§1) Protein samples were harvested in RIPA buffer [150 mM NaCl, 1% NP-40, 0.5% Na-deocycholate, 1% SDS, 25 mM Tris-HCl pH7.4] supplemented with protease and phosphatase inhibitor tablets (Pierce), followed by sonication in Diagenode Bioruptor. Lysate was cleared by centrifugation at 16000×g and quantified using a Pierce BCA assay (Thermo Fisher Scientific). Samples were run on NuPAGE precast polyacrylamide gels (Invitrogen) and transferred to PVDF membrane. Membranes were blocked in PBS containing 0.1% Tween-20 and 5% non-fat dry milk before overnight incubation at 4° C. with primary antibodies (see resource table for a list of antibodies used in this study). Membranes were incubated with horseradish peroxidase-conjugated secondary antibodies for 1 hour at room temperature and SuperSignal chemiluminescent substrate (Thermo Scientific) was used for detection on film with a Mini-medical 90 processor. Membranes were stripped with Restore Western Blot Stripping Buffer (Pierce).

[1] = system: de novo protein synthesis; experiment: [35S]-methionine/cysteine metabolic labeling of nascent protein synthesis; assay type: cell-based; conditions: human myoblasts, 20-92 h after 4 h doxycycline pulse
Procedure: Cells were treated with and without a 4-hour pulse of doxycycline. Eight hours prior to harvest, cells were incubated in DMEM depleted for methionine and cysteine (Gibco) supplemented with 90 microcurie 35S-methionine/cysteine (Perkin Elmer) and 50 ng/ml […] (R&D Systems). Protein samples were harvested in RIPA buffer [150 mM NaCl, 1% NP-40, 0.5% Na-deocycholate, 1% SDS, 25 mM Tris-HCl pH7.4] supplemented with protease and phosphatase inhibitor tablets (Pierce), followed by sonication in Diagenode Bioruptor. Lysate was cleared by centrifugation at 16000×g and quantified using a Pierce BCA assay (Thermo Scientific). Samples were run on NuPAGE precast polyacrylamide gels (Invitrogen). Gels were stained with InstantBlue Coomassie (Abcam) following manufacturer protocol, placed on whatman paper, wrapped in plastic wrap, and dried. Gels were exposed to phosphor screen, imaged on Typhoon Trio imager, and analyzed with ImageQuant.

HLA-E = experiment: Immunoblot of non-canonical MHC class I HLA-E; assay type: cell-based, human; conditions: MB135iDUX4 cells
Procedure: as §1

[2] = system: STAT1 binding to ISG promoters (GBP1, IDO1, CXCL10); experiment: STAT1 chromatin immunoprecipitation (ChIP-qPCR) at ISG promoters; assay type: cell-based, human; conditions: MB135-iDUX4-CTD cells, IFNG ± doxycycline
Procedure: Chromatin immunoprecipitation (ChIP) was performed as previously described (Nelson et al 2006) with the following modifications: Cells were plated and allowed to grow to 70-80% confluence. Pelleted nuclei were sonicated on a Diagenode Biruptor on “Low” for 10 min as 30 sec on/30 sec off, followed by 6 rounds of sonication on “High” for 10 min each as 30 sec on/30 sec off (70 minutes total sonication) in IP Buffer+0.5% SDS. For immunoprecipitation, 500 ng of chromatin was set aside per condition as an “Input” and 4 μg of antibody was added to 10 μg of chromatin in an equal volume of IP Buffer+0.5% SDS across samples. IP Buffer (150 mM NaCl, 50 mM Tris-HCl pH 7.4, 5 mM EDTA, 1% Triton X-100, 0.5% NP-40, +Roche complete mini protease inhibitor EDTA-free) was added to lower the percentage of SDS <0.1%, and tubes were incubated with rotation overnight at 4° C. During this time, protein-A agarose Fastflow beads (Millipore) were washed twice with IP Buffer and then blocked in IP Buffer containing 2% BSA by rotating overnight at 4° C. After clearing the chromatin as described, beads were aliquoted to fresh tubes and the top 90% of chromatin was transferred to the tubes containing the blocked bead slurry. Tubes were rotated for 1 hour at 4° C. […]

| Substance | induction of DUX4 target H3.X/Y proteins (H3.X/Y) | induction of DUX4 target H3.X/Y proteins (H3.X/Y; listed as full-length DUX4) | nascent protein synthesis by 35S labeling [1] | nascent protein synthesis by 35S labeling ([1]; listed as wildtype DUX4) | effect on IFNG-induced HLA-E protein (HLA-E) | STAT1 occupancy at ISG promoters [2] |
| --- | --- | --- | --- | --- | --- | --- |
| DUX4: human DUX4 protein SEQ ID NO:3 expressed from doxycycline inducible codon altered transgene SEQ ID NO:2 | activates a DUX4-regulated gene H3.X/Y in both protocols | are induced by the full-length DUX4 | global de novo protein synthesis was transiently reduced | a reduction in labeled nascent proteins several days following a pulse | does not suppress the noncanonical MHC class E (HLA-E); also recorded: maintaining HLA-E in multiple cell types |  |
| longCTD: 3×FLAG tag and nls in frame with carboxyterminal 271 amino acids of DUX4 (aa154-424), SEQ ID NOS: 8-9 |  |  |  |  |  | diminished STAT1 occupancy at all three ISGs; also recorded: moderately decreases STAT1 occupancy at ISG promoters |
